Assay results from US10059950B2, “Compositions comprising an internalizing nucleic acid molecule, and their methods of use” (B3 BIO, INC., priority 2012, dated 2018).
In the oligonucleotide strings, read from the 5' end, every base follows the letter of its sugar. An asterisk marks phosphorothioate; unmarked linkages are phosphodiester. Other units and linkages are bracketed, terminal groups are in braces. A string of capitals states the bases alone. r = 2'-OH (RNA); f = 2'-fluoro

How the values were obtained:
[1] = test system: human prostate cancer cell line PC-3; assay: Flow cytometric-based screening assay for internalization in PC-3 cells; type: cell-based
Procedure: In illustrating a screening process for internalization, from clones selected for further analysis from the selection process, a flow cytometric-based assay for binding and/or internalization was utilized. Typically, the assay was performed by incubating 200 nM of each clone with 5×10^5 target cells in 100 ul PBS containing 0.5% bovine serum albumin (BSA) in a 13 mm tube for 2 hours @ 37° C. A first portion of the cells was then treated with RNAse to remove any of the clone remaining bound to the surface of the cells, so as to allow detection and quantitation of internalized clone (i.e., measuring internalization). In parallel, a second portion of the cells was treated with PBS containing 0.5% BSA (lacking added RNase activity to enzymatically cleave […]), so as to allow detection and quantitation of clone remaining bound to the cell surface, as well as internalized clone (i.e., measuring binding and internalization). Following further washes with phosphate-buffered saline, the cells were fixed in 1% formaldehyde and then subjected to analysis on a flow cytometer using commercially available analysis software. In performing analyses by flow cytometry, several assay controls were used. As an assay control representing either no or background (e.g., non-specific) internalization, an RNA molecule resulting from a selection process for binding a molecule not detectably expressed on target cells was used. The assay control RNA molecule was further modified with Alexa 647, and then used for further characterization of clones from the selection process described herein. For ease of description and reference for this Example, this assay control RNA molecule is referred to herein as Negative Control 1 (see, e.g., Table 5). As an additional assay control that represents either no or background internalization, used was an RNA molecule from the starting library which was chosen from the library prior to beginning a selection method described herein, and that was further modified with Alexa 647. This assay control RNA molecule is referred to herein as Negative Control 2 (see, e.g., Tables 5, 7, and 8). Additionally, fluorescence of unstained cells was measured, as a control, to quantitate any background fluorescent properties of the cells themselves as encountered in analyses by flow cytometry (“Unstained”), as opposed to fluorescent signal mediated by the RNA molecules further modified to include Alexa 647. Shown in Table 5 are the results of analyses by flow cytometry in which measured and quantitated was the ability of clones, selected on the basis of sequence convergence, to internalize into target cells represented by human prostate cancer cell line PC-3. The units of fluorescence in Table 5 represent mean fluorescence (“Mean”). The fold increase (determined by dividing the mean fluorescence of a clone by the mean fluorescence of unstained cells) is an indicator of the ability of a clone, or a clone which has been further modified to include an effector moiety, to internalize into the target cells (Table 5; “Fold Increase”).
The truncations, illustrated in Table 6, were each further modified with a detectable moiety, Alexa 647, and analyzed by a flow cytometric-based screening assay for internalization using the methods outlined in Example 2, to determine minimal sequences that maintain the full ability to internalize into human prostate cancer cells. Shown in Table 7 are the results of analyses by flow cytometry in which measured and quantitated was the ability of each truncation to internalize into target cells represented by human prostate cancer cell line PC-3. The units of fluorescence in Table 7 represent mean fluorescence intensity (“Mean”). […]

[2] = test system: PrEC human primary prostate epithelial cells; assay: Flow cytometric binding and internalization assay, PrEC; type: cell-based; settings: nonmalignant
Procedure: (§1) In illustrating a screening process for internalization, from clones selected for further analysis from the selection process, a flow cytometric-based assay for binding and/or internalization was utilized. Typically, the assay was performed by incubating 200 nM of each clone with 5×10^5 target cells in 100 ul PBS containing 0.5% bovine serum albumin (BSA) in a 13 mm tube for 2 hours @ 37° C. A first portion of the cells was then treated with RNAse to remove any of the clone remaining bound to the surface of the cells, so as to allow detection and quantitation of internalized clone (i.e., measuring internalization). In parallel, a second portion of the cells was treated with PBS containing 0.5% BSA (lacking added RNase activity to enzymatically cleave […]), so as to allow detection and quantitation of clone remaining bound to the cell surface, as well as internalized clone (i.e., measuring binding and internalization). […] Additionally, fluorescence of unstained cells was measured, as a control, to quantitate any background fluorescent properties of the cells themselves as encountered in analyses by flow cytometry (“Unstained”), as opposed to fluorescent signal mediated by the RNA molecules further modified to include Alexa 647. […] The units of fluorescence in Table 5 represent mean fluorescence (“Mean”). […]

[3] = test system: A549 human lung adenocarcinoma; assay: Flow cytometric binding and internalization assay, A549; type: cell-based; settings: A549, malignant
Procedure: as §1

[4] = test system: MCF7 human breast adenocarcinoma; assay: Flow cytometric binding and internalization assay, MCF7; type: cell-based; settings: MCF7, malignant
Procedure: as §1

[5] = test system: WIL-2 B lymphoblastoid cell line transformed with Epstein Barr virus; assay: Flow cytometric binding and internalization assay, WIL-2; type: cell-based, human; settings: WIL-2, transformed cells
Procedure: as §1

[6] = test system: K562 human chronic myelogenous leukemia; assay: Flow cytometric binding and internalization assay, K562; type: cell-based; settings: K562, malignant
Procedure: as §1

[7] = Table 8, mutants of E3-45, PC-3
[8] = Table 7, truncations modified with Alexa 647, PC-3

Row | Molecule | Fold increase (mean fluorescence intensity / unstained cells) [1, 7] | Mean (mean fluorescence intensity) [1, 7] | ability to bind and internalize as compared to wildtype iNA (E3-45) ([1]; PC-3, in words) | Fold increase (mean fluorescence intensity / unstained cells) [1, 8] | Mean (mean fluorescence intensity) [1, 8] | also measured
1 | mutant 6: site-directed mutant of E3-45 in a loop portion containing a conserved motif (GGGUGCGGUACUUUCGGGCUUUCGGCCCCAUCAGCCCCUCAGGACG; listed as RNA, further chemistry not given here) | 1.9 | 167 |  |  |  | 
2 | mutant 4: mutant of E3-45 with the conserved motif UUUCGG mutated in a loop portion (GGGUGCGGUACUUUCGGGCUUUCAAAAACAUCAGCCCCUCAGGACG; aptamer; listed as RNA, chemistry not fully specified) | 2.0 | 176 | loss of the ability to bind and internalize |  |  | 
3 | mutant 5: site-directed mutant of E3-45 in a loop portion containing a conserved motif (GGGUGCGGUACUUUCGGGCUUUCGGCUUUAUCAGCCCCUCAGGACG; listed as RNA, further chemistry not given here) | 1.9 | 164 |  |  |  | 
4 | mutant 8: mutant of E3-45 with loop portion mutated to 5′ to 3′ UUUCGAG (GGGUGCGGUACUUUCGGGCUGGCACUUUCGAAAGCCCCUCAGGACG; listed as RNA, chemistry not fully specified) | 1.5 | 130 | loss of binding and internalization |  |  | 
5 | mutant 7: site-directed mutant of E3-45 in a loop portion containing a conserved motif (GGGUGCGGUACUUUCGGGCUUUCGGCAACUAUAGCCCCUCAGGACG; listed as RNA, further chemistry not given here) | 1.8 | 153 |  |  |  | 
6 | GGGUGCGGUACUUUCGGGCUUUCGGCAACAUCAGCCCCUCAGGACG (rGrGrGfUrGfCrGrGfUrAfCfUfUfUfCrGrGrGfCfUfUfUfCrGrGfCrArAfCrAfUfCrArGfCfCfCfCfUfCrArGrGrAfCrG; aptamer; Alexa 647 label attached, position not given here, further chemistry not fully specified) [E3-45, truncation of iNA E3, 45 bases; wildtype for mutants 1-8] | 5.4 | 470 |  | 8.6 | 690 | 
7 | mutant 1: assay control mutant of E3-45, mutation in a loop not containing the conserved motif UUUCGG (GGGUGCGAAACUUUCGGGCUUUCGGCAACAUCAGCCCCUCAGACCG; listed as RNA, chemistry not fully specified) | 4.7 | 405 | ability to internalize equally |  |  | 
8 | mutant 3: mutant of E3-45 with the conserved motif UUUCGG mutated in a loop portion (GGGUGCGGUACUUUCGGGCUAAAGGCAACAUCAGCCCCUCAGGACG; aptamer; listed as RNA, chemistry not fully specified) | 1.6 | 142 | loss of the ability to bind and internalize |  |  | 
9 | GGGAGGCUUUCGGGCUUUCGGCAACAUCAGCC (rGrGrGrArGrGfCfUfUfUfCrGrGrGfCfUfUfUfCrGrGfCrArAfCrAfUfCrArGfCfC; aptamer; Alexa 647 label attached, position not given here, further chemistry not fully specified) [E3-32, truncation of iNA E3, 32 bases] |  |  |  | 11.8 | 944 | 
10 | mutant 2: mutant of E3-45 with the conserved motif UUUCGG mutated in a loop portion (GGGUGCGGUACUAAAGGGCUUUCGGCAACAUCAGCCCAAAAGGACG; aptamer; listed as RNA, chemistry not fully specified) | 1.5 | 127 | loss of the ability to bind and internalize |  |  | 
11 | GGGAGGCUGGGCUUUCGGCAAC (rGrGrGrArGrGfCfUrGrGrGfCfUfUfUfCrGrGfCrArAfC; aptamer; Alexa 647 label attached, position not given here, further chemistry not fully specified) [E3-22, truncation of iNA E3, 22 bases] |  |  |  | 1.0 | 80.7 | 
12 | D11: RNA iNA clone from Round 14 toggle selection, variable region SEQ ID NO:20 UCCCCGGAUUUCGGAUACGAUCCCUCAUCCCUUGACCGCA, 2′ fluoro pyrimidines (nucleic acid, Alexa 647 attached for internalization assay, further chemistry not fully specified) rGrGrGrArGrGrAfCrGrAfUrGfCrGrGfUfCfCfCfCrGrGrAfUfUfUfCrGrGrAfUrAfCrGrAfUfCfCfCfUfCrAfUfCfCfCfUfUrGrAfCfCrGfCrArAfUfUfUfCfUfCfCfUrAfCfUrGrGrGrAfUrArGrGfUrGrGrAfUfUrAfU |  |  |  |  |  | internalization into cells (conclusion from Table 5) ([1]; PC-3, in words): mediate internalization into cells; Fold Increase (mean fluorescence of clone / unstained cells) ([1]; Table 5, 200 nM Alexa 647-modified clone, 2 hours @ 37° C., PC-3): 5.8; Mean (mean fluorescence) ([1]; Table 5, 200 nM Alexa 647-modified clone, 2 hours @ 37° C., flow cytometry, PC-3): 460; Fold increase ([1]; Table 9, PC3, malignant): 5.8; Fold increase [2]: 2.7; Fold increase [3]: 3.2; Fold increase [4]: 11.7; Fold increase [5]: 11.4; Fold increase [6]: 19.0
13 | GGGAGGACGAUGCGGUACUUUCGGGCUUUCGGCAACAUCAGCCCCUCAGGACGCAAUUUCUC (nucleic acid, Alexa 647 label attached, position not given here, further chemistry not fully specified, truncation of iNA E3, 62 bases) rGrGrGrArGrGrAfCrGrAfUrGfCrGrGfUrAfCfUfUfUfCrGrGrGfCfUfUfUfCrGrGfCrArAfCrAfUfCrArGfCfCfCfCfUfCrArGrGrAfCrGfCrArAfUfUfUfCfUfC |  |  |  | 10.7 | 858 | 
